Experimental data reported in publication PMC9239247, “Listeria monocytogenes TcyKLMN Cystine/Cysteine Transporter Facilitates Glutathione Synthesis and Virulence Gene Expression” (mBio, 2022).

Target: T1, TcyK (Listeria monocytogenes, UniProt A0A0H3GMT4)
T1 construct: gene LMRG_01494; residues 38-286, without membrane-anchoring domain; N-terminal His-tag (pET-19b, cleavage not mentioned); codon-optimised, E. coli BL21-Gold(DE3)
Test: isothermal titration calorimetry
Format: binding

T1 sequence (A0A0H3GMT4 entry or part of it): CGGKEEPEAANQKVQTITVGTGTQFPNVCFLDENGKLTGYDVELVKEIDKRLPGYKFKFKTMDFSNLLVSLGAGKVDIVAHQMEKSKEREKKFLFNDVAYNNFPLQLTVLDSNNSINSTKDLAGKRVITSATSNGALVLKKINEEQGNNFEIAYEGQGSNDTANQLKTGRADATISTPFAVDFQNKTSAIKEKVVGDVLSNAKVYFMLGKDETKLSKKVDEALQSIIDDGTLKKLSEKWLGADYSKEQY

N[C@@H](CSSC[C@H](N)C(=O)O)C(=O)O [CSSC, cystine]
Kd: ~13 µM

N[C@@H](CS)C(=O)O [Cys, L-cysteine]
Kd: ~66.7 µM
